This note sets out measurements from doi:10.1101/2022.03.22.485260v1 (biorxiv, 2022).

Read-outs that look alike come from different tables or passages of the source.

The target of assay [1] is T1, hTMPK (thymidylate kinase) (Homo sapiens, UniProt P23919).
T1 sequence (P23919 2-212): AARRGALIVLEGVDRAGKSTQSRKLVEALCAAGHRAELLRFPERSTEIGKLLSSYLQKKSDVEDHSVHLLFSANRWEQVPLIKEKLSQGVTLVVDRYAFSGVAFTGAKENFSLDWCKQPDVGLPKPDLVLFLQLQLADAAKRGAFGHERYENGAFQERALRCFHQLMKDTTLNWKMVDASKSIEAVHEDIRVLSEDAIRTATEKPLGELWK
In words: NADH-coupled. It counts as biochemical.

The target of assay [2] is T1, hTMPK (thymidylate kinase). In words: NADH-coupled assay, […] min pre-incubation, non-linear fit. The following applies: ATP varied 0-200 μM, 500 μM TMP; mixed inhibition; pH 7.5, 25 °C. The assay is classed as biochemical.

Compound “Tert-butyl 4-(2-(5-fluoro-3-oxobenzo[d]isothiazol-2(3H)-yl) acetyl) piperazine-1-carboxylate [JMF4073]” came in with a half-inhibitory concentration (IC50) in assay [1] (500 μM ATP, 500 μM dTMP, 10 mM MgCl2, pH 7.5, 25 °C) of 160 nM. This compound displayed a Ki in assay [2] of 5 nM. For `CC(C)(C)OC(=O)N1CCN(C(=O)Cn2sc3ccccc3c2=O)CC1` [JMF2977], the IC50 in assay [1] is 500 nM.

One may read the IC50 as the concentration at which inhibition is half-maximal. A higher IC50 goes with lower potency. In general, Ki refers to the equilibrium dissociation constant of an inhibitor or competing ligand from its target.
